According to US9475824B2, “Fused pyrimidines as inhibitors of p97 complex” (Cleave Biosciences, Inc., priority 2012, dated 2016):

Key:
[1] = molecular target: p97 (Homo sapiens, UniProt P55072); test: P97 ATPase biochemical assay (ADP Glo); details: 20 nM p97, 20 μM ATP, 37° C. 15 minutes
Procedure: The ATPase assay is performed according the following protocol: Purified enzyme (20 nM p97), substrate (20 μM ATP) and a dose titration of compounds are mixed in buffer (50 mM TRIS pH 7.5, 20 mM MgCl2, 0.02% TX-100, 1 mM DTT, 0.2% (v/v) glycerol) and incubated at 37° C. for 15 minutes. The reaction is terminated and the level of product generated is measured using the ADP Glo Assay Kit (Promega, Madison Wis.). Plotting product generated versus compound concentration and using a four-parameter fit model generates an IC50 value for each compounds.
The p97 assay is an initial screening assay used to determine inhibitory activity of the fused pyrimidine compounds of the invention against the p97 complex. As discussed above, inhibition of activity of the p97 proteosome complex can enable apoptosis and cause elimination of neoplastic cells (cancer cells). The method follows that of Christianson in Nat.
Assay Buffer is a mixture of 50 mM TRIS pH 7.5, 20 mM MgCl2, 0.02% TX-100, 1 mM DTT and 0.2% (v/v) Glycerol. […] The identification kit is an ADP glo kit (Promega): stop buffer, detection reagent.
0.5 μL compound serial diluted in DMSO (Final Conc. 10%)
2 μL ATP (Final Conc.=20 uM, diluted in assay buffer)
2.5 μL p97 (Final Conc.=20 nM, diluted in assay buffer)
Incubate at 37 degC for 15 min.
Add 5 μL of stop buffer, incubate at RT for 40 min.
Add 10 μL of detection reagent, incubate at RT for 30 min.
Read luminescence on Envision plate reader.
Plot normalized luminescence data against log-transformed concentration values and fit to a sigmoidal curve to determine IC50 values (done in Collaborative Drug Discovery software).

[2] = system: K48-Ub, A549 cells; test: A549 K48 cell intensity (immunofluorescence, high content imaging); format: cell-based; details: Homo sapiens, 6 hr compound incubation
Procedure: Image-analysis is used to generate quantitative data from these assays that can be fit to a four-parameter sigmoid curve to derive IC50 values. Substrates of the ubiquitin-proteasome system, such as p53, are monitored after tumor cell lines are incubated with compounds for several hours. Accumulation of these proteins indicates an inhibition of proteasome-mediated degradation. Accumulation of lysine-48 chain linkage of poly-ubiquitin is also monitored by immunofluorescence as an indicator of ubiquitin-proteasome system inhibition. Both LC3 and SQSTM1 are mediators of autophagy. The localization and amounts of these proteins are monitored by immunofluorescence and report on the activity and inhibition of autophagy in response to p97 inhibition.
Day 1, Cell Plating to Establish Colonies of Cancer Cells • Cell Plating: • Seed cells ˜16 hrs prior to compound treatment • Plate 25 μL of A549 cells in every well of 384-well plate using multidrop. • Two (2) black plates for IF at 2500 cells/well • Let plate sit at room temp for 10-15 minutes prior to putting in incubator to allow cells to stick in middle of plate. • One (1) white plate for viability at 500 cells/well.

p97, sequence (P55072 whole entry): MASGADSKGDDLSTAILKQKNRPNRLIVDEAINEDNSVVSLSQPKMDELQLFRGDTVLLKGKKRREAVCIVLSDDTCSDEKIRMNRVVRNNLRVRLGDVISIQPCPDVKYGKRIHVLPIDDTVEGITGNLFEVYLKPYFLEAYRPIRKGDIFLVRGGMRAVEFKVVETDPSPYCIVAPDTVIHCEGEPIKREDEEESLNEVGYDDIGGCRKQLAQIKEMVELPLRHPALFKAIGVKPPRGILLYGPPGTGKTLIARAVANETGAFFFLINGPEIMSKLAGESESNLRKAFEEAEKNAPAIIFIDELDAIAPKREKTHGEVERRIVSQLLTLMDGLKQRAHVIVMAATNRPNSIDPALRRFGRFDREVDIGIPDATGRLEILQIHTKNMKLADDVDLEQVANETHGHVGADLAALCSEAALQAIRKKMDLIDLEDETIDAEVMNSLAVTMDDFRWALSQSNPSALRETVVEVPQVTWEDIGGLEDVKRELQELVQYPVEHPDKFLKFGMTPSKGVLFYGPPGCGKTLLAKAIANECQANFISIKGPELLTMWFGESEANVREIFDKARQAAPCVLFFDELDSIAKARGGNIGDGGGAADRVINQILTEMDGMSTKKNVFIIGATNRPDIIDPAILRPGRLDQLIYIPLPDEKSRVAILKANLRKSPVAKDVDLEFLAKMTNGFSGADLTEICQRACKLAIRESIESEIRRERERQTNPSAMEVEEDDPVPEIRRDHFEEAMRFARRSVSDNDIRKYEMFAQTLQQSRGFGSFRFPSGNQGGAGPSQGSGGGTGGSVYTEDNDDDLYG

Structure (SMILES) | IC50 [1] | IC50 [2]
COc1nc2ccccc2n1-c1nc2c(c(NCc3ccccc3)n1)CCCC2 [compound 9, N-benzyl-2-(2-methoxy-1H-1,3-benzodiazol-1-yl)-5,6,7,8-tetrahydroquinazolin-4-amine] | < 0.1 µM | < 10 µM
Cc1cc2ccccc2n1-c1nc2c(c(NCc3ccccc3)n1)CCCC2 [compound 21, N-benzyl-2-(2-methyl-1H-indol-1-yl)-5,6,7,8-tetrahydroquinazolin-4-amine] | < 0.3 µM | < 10 µM
Cc1cc2c(C#N)cccc2n1-c1nc2c(c(NCc3ccccc3)n1)CNCC2 [compound 42, 1-[4-(benzylamino)-5H,6H,7H,8H-pyrido[4,3-d]pyrimidin-2-yl]-2-methyl-1H-indole-4-carbonitrile] | < 0.1 µM | < 10 µM
Cc1cc2c(C(=O)NCCN(C)C)cccc2n1-c1nc2c(c(NCc3ccccc3)n1)COCC2 [compound 84] | < 0.03 µM | < 10 µM
Cc1cc2c(C(N)=O)cccc2n1-c1nc2c(c(NCc3ccccc3)n1)CCCC2 [compound 90, 1-[4-(benzylamino)-5,6,7,8-tetrahydroquinazolin-2-yl]-2-methyl-1H-indole-4-carboxamide] | < 0.03 µM | < 10 µM
COc1cc2c(C(N)=O)cccc2n1-c1nc2c(c(NCc3ccccc3)n1)CCCC2 [compound 91, 1-[4-(benzylamino)-5,6,7,8-tetrahydroquinazolin-2-yl]-2-methoxy-1H-indole-4-carboxamide] | < 0.03 µM | < 10 µM
Cc1nc2c(C(N)=O)cccc2n1-c1nc2c(c(NCc3ccccc3)n1)COCC2 [compound 93, 1-[4-(benzylamino)-5H,7H,8H-pyrano[4,3-d]pyrimidin-2-yl]-2-methyl-1H-1,3-benzodiazole-4-carboxamide] | < 0.1 µM | < 10 µM
COc1nc2c(C(N)=O)cccc2n1-c1nc2c(c(NCc3ccccc3)n1)COCC2 [compound 94, 1-[4-(benzylamino)-5H,7H,8H-pyrano[4,3-d]pyrimidin-2-yl]-2-methoxy-1H-1,3-benzodiazole-4-carboxamide] | < 0.03 µM | < 10 µM
NC(=O)c1cccc2c1cc(CO)n2-c1nc2c(c(NCc3ccccc3)n1)COCC2 [compound 96, 1-[4-(benzylamino)-5H,7H,8H-pyrano[4,3-d]pyrimidin-2-yl]-2-(hydroxymethyl)-1H-indole-4-carboxamide] | < 0.1 µM | < 10 µM
CNC(=O)c1cccc2c1cc(C)n2-c1nc2c(c(NCc3ccccc3)n1)COCC2 [compound 97, 1-[4-(benzylamino)-5H,7H,8H-pyrano[4,3-d]pyrimidin-2-yl]-N,2-dimethyl-1H-indole-4-carboxamide] | < 0.1 µM | < 10 µM
NCc1cc2c(C(N)=O)cccc2n1-c1nc2c(c(NCc3ccccc3)n1)CCCC2 [compound 101, 2-(aminomethyl)-1-[4-(benzylamino)-5,6,7,8-tetrahydroquinazolin-2-yl]-1H-indole-4-carboxamide] | < 0.03 µM | < 10 µM
Cc1cc2c(C(=O)NCCN)cccc2n1-c1nc2c(c(NCc3ccccc3)n1)COCC2 [compound 105, N-(2-aminoethyl)-1-[4-(benzylamino)-5H,7H,8H-pyrano[4,3-d]pyrimidin-2-yl]-2-methyl-1H-indole-4-carboxamide] | < 1 µM | < 10 µM
COc1nc2c(C#N)cccc2n1-c1nc2c(c(NCc3ccccc3)n1)COCC2 [compound 106, 1-[4-(benzylamino)-5H,7H,8H-pyrano[4,3-d]pyrimidin-2-yl]-2-methoxy-1H-1,3-benzodiazole-4-carbonitrile] | < 0.3 µM | < 10 µM
Cc1cc2c(C(=O)O)cccc2n1-c1nc2c(c(NCc3ccccc3)n1)COCC2 [compound 107, 1-[4-(benzylamino)-5H,7H,8H-pyrano[4,3-d]pyrimidin-2-yl]-2-methyl-1H-indole-4-carboxylic acid] | < 0.03 µM | < 10 µM
Cc1cc2c(C(=O)O)cccc2n1-c1nc2c(c(NCc3ccccc3)n1)CCCC2 [compound 108, 1-[4-(benzylamino)-5,6,7,8-tetrahydroquinazolin-2-yl]-2-methyl-1H-indole-4-carboxylic acid] | < 0.03 µM | < 10 µM
Cc1cc2c(S(N)(=O)=O)cccc2n1-c1nc2c(c(NCc3ccccc3)n1)CCCC2 [compound 110, 1-[4-(benzylamino)-5,6,7,8-tetrahydroquinazolin-2-yl]-2-methyl-1H-indole-4-sulfonamide] | < 0.1 µM | < 10 µM
Cc1cc2c(S(C)(=O)=O)cccc2n1-c1nc2c(c(NCc3ccccc3)n1)CCCC2 [compound 111, N-benzyl-2-(4-methanesulfonyl-2-methyl-1H-indol-1-yl)-5,6,7,8-tetrahydroquinazolin-4-amine] | < 0.1 µM | < 10 µM
CCc1cc2c(C(N)=O)cccc2n1-c1nc2c(c(NCc3ccccc3)n1)CCCC2 [compound 112, 1-[4-(benzylamino)-5,6,7,8-tetrahydroquinazolin-2-yl]-2-ethyl-1H-indole-4-carboxamide] | < 0.1 µM | < 10 µM
CCc1cc2c(C(N)=O)cccc2n1-c1nc2c(c(NCc3ccccc3)n1)COCC2 [compound 113, 1-[4-(benzylamino)-5H,7H,8H-pyrano[4,3-d]pyrimidin-2-yl]-2-ethyl-1H-indole-4-carboxamide] | < 0.3 µM | < 10 µM
COc1nc2c(C(N)=O)cccc2n1-c1nc2c(c(NCc3ccccc3)n1)CCCC2 [compound 114, 1-[4-(benzylamino)-5,6,7,8-tetrahydroquinazolin-2-yl]-2-methoxy-1H-1,3-benzodiazole-4-carboxamide] | < 0.03 µM | < 10 µM
Cc1cc2c(S(C)(=O)=O)cccc2n1-c1nc2c(c(NCc3ccccc3)n1)COCC2 [compound 118, N-benzyl-2-(4-methanesulfonyl-2-methyl-1H-indol-1-yl)-5H,7H,8H-pyrano[4,3-d]pyrimidin-4-amine] | < 0.3 µM | < 10 µM
Cc1cc2c(C(N)=O)cccc2n1-c1nc2c(c(NCc3ccc(F)cc3)n1)COCC2 [compound 122, 1-(4-{[(4-fluorophenyl)methyl]amino}-5H,7H,8H-pyrano[4,3-d]pyrimidin-2-yl)-2-methyl-1H-indole-4-carboxamide] | < 0.1 µM | < 10 µM
Cc1cc2c(C(N)=O)cccc2n1-c1nc2c(c(NCc3ccccc3F)n1)COCC2 [compound 123, 1-(4-{[(2-fluorophenyl)methyl]amino}-5H,7H,8H-pyrano[4,3-d]pyrimidin-2-yl)-2-methyl-1H-indole-4-carboxamide] | < 0.1 µM | < 10 µM
Cc1cc2c(CN)cccc2n1-c1nc2c(c(NCc3ccccc3)n1)CCCC2 [compound 124, 2-[4-(aminomethyl)-2-methyl-1H-indol-1-yl]-N-benzyl-5,6,7,8-tetrahydroquinazolin-4-amine] | < 0.1 µM | < 10 µM
Cc1cc2c(CN)cccc2n1-c1nc2c(c(NCc3ccccc3)n1)COCC2 [compound 125, 2-[4-(aminomethyl)-2-methyl-1H-indol-1-yl]-N-benzyl-5H,7H,8H-pyrano[4,3-d]pyrimidin-4-amine] |  | < 10 µM
CCOc1cc2c(C(N)=O)cccc2n1-c1nc2c(c(NCc3ccccc3)n1)CCCC2 [compound 135, 1-[4-(benzylamino)-5,6,7,8-tetrahydroquinazolin-2-yl]-2-ethoxy-1H-indole-4-carboxamide] | < 0.03 µM | 
